Legend:
[1] = system: EMRSA m972 710 40 phage group 9; experiment: ZOI of triclosan vapours (vapour phase)
[2] = system: S. saprophyticus NCIMB 8711; experiment: ZOI of triclosan vapours (vapour phase); format: cell-based
[3] = system: S. epidermidis NCTC 7944; experiment: ZOI of triclosan vapours (vapour phase); format: cell-based
[4] = system: S. saprophyticus NCIMB 8711; experiment: MIC of triclosan (direct contact); format: cell-based
[5] = system: EMRSA g96 139 515 phage group 15; experiment: ZOI of triclosan vapours (vapour phase)
[6] = system: MSSA (46); experiment: ZOI of triclosan vapours (vapour phase); format: cell-based, S. aureus
[7] = system: MRSA 26; experiment: ZOI of triclosan vapours (vapour phase)
[8] = system: MSSA (47); experiment: ZOI of triclosan vapours (vapour phase); format: cell-based, S. aureus
[9] = system: EMRSA m97 271 064 phage group 14; experiment: ZOI of triclosan vapours (vapour phase)
[10] = system: S. epidermidis NCTC 11047; experiment: ZOI of triclosan vapours (vapour phase); format: cell-based
[11] = system: MRSA 14; experiment: ZOI of triclosan vapours (vapour phase)
[12] = system: EMRSA m972 71041 phage group 5; experiment: ZOI of triclosan vapours (vapour phase)
[13] = system: Strain T1 MSSA; experiment: MIC of triclosan (direct contact); format: cell-based, S. aureus
[14] = system: EMRSA m97 271 038 phage group 2; experiment: ZOI of triclosan vapours (vapour phase)
[15] = system: MRSA 20; experiment: ZOI of triclosan vapours (vapour phase)
[16] = system: MRSA 13; experiment: ZOI of triclosan vapours (vapour phase)
[17] = system: EMRSA j95 922 phage group 3; experiment: ZOI of triclosan vapours (vapour phase)
[18] = system: EMRSA g96 138 744 phage group 16; experiment: ZOI of triclosan vapours (vapour phase)
[19] = system: EMRSA m97 271 032 phage group 10; experiment: MIC of triclosan (direct contact)
[20] = system: EMRSA m97 271 088 phage group 6; experiment: ZOI of triclosan vapours (vapour phase)
[21] = system: Strain T4 MSSA; experiment: MIC of triclosan (direct contact); format: cell-based, S. aureus
[22] = system: MRSA 16; experiment: ZOI of triclosan vapours (vapour phase)
[23] = system: EMRSA m97 271 047 phage group 8; experiment: ZOI of triclosan vapours (vapour phase)
[24] = system: EMRSA g96 136 210 phage group 17; experiment: ZOI of triclosan vapours (vapour phase)
[25] = system: S. aureus NCBC 11882; experiment: ZOI of triclosan vapours (vapour phase); format: cell-based
[26] = system: Strain T4 MSSA; experiment: ZOI of triclosan vapours (vapour phase); format: cell-based, S. aureus
[27] = system: all strains of staphylococci; experiment: MIC of triclosan (direct contact), all strains; format: cell-based
[28] = system: Strain T1 MSSA; experiment: ZOI of triclosan vapours (vapour phase); format: cell-based, S. aureus
[29] = system: EMRSA m97 271 036 phage group 11; experiment: ZOI of triclosan vapours (vapour phase)
[30] = system: MRSA 12; experiment: ZOI of triclosan vapours (vapour phase)

Oc1cc(Cl)ccc1Oc1ccc(Cl)cc1Cl [triclosan]
ZOI Average ([1]; average): 55 mm | ZOI 1 ([1]; replicate 1): 55 mm | ZOI 2 ([1]; replicate 2): 55 mm | ZOI Average ([2]; average): 37.5 mm | ZOI 1 ([2]; replicate 1): 33 mm | ZOI 2 ([2]; replicate 2): 42 mm | ZOI Average ([3]; average): 50.5 mm | ZOI 1 ([3]; replicate 1): 50 mm | ZOI 2 ([3]; replicate 2): 51 mm | MIC [4]: 2 Mg ml^−1− | ZOI Average ([5]; average): 47 mm | ZOI 1 ([5]; replicate 1): 47 mm | ZOI 2 ([5]; replicate 2): 47 mm | ZOI Average ([6]; average): 45 mm | ZOI 1 ([6]; replicate 1): 45 mm | ZOI 2 ([6]; replicate 2): 45 mm | ZOI Average ([7]; average): 40 mm | ZOI 1 ([7]; replicate 1): 40 mm | ZOI 2 ([7]; replicate 2): 40 mm | ZOI Average ([8]; average): 51.5 mm | ZOI 1 ([8]; replicate 1): 52 mm | ZOI 2 ([8]; replicate 2): 51 mm | ZOI Average ([9]; average): 35 mm | ZOI 1 ([9]; replicate 1): 35 mm | ZOI 2 ([9]; replicate 2): 35 mm | ZOI Average ([10]; average): 50.5 mm | ZOI 1 ([10]; replicate 1): 50 mm | ZOI 2 ([10]; replicate 2): 51 mm | ZOI Average ([11]; average): 55 mm | ZOI 1 ([11]; replicate 1): 55 mm | ZOI 2 ([11]; replicate 2): 55 mm | ZOI Average ([12]; average): 55 mm | ZOI 1 ([12]; replicate 1): 55 mm | ZOI 2 ([12]; replicate 2): 55 mm | MIC [13]: 0.5 Mg ml^−1− | ZOI Average ([14]; average): 57 mm | ZOI 1 ([14]; replicate 1): 57 mm | ZOI 2 ([14]; replicate 2): 57 mm | ZOI Average ([15]; average): 55 mm | ZOI 1 ([15]; replicate 1): 55 mm | ZOI 2 ([15]; replicate 2): 55 mm | ZOI Average ([16]; average): 47 mm | ZOI 1 ([16]; replicate 1): 47 mm | ZOI 2 ([16]; replicate 2): 47 mm | ZOI Average ([17]; average): 54 mm | ZOI 1 ([17]; replicate 1): 55 mm | ZOI 2 ([17]; replicate 2): 53 mm | ZOI Average ([18]; average): 50 mm | ZOI 1 ([18]; replicate 1): 50 mm | ZOI 2 ([18]; replicate 2): 50 mm | MIC [19]: 0.5 Mg ml^−1− | ZOI Average ([20]; average): 52 mm | ZOI 1 ([20]; replicate 1): 52 mm | ZOI 2 ([20]; replicate 2): 52 mm | MIC [21]: 0.25 Mg ml^−1− | ZOI Average ([22]; average): 55.5 mm | ZOI 1 ([22]; replicate 1): 55 mm | ZOI 2 ([22]; replicate 2): 56 mm | ZOI Average ([23]; average): 52 mm | ZOI 1 ([23]; replicate 1): 52 mm | ZOI 2 ([23]; replicate 2): 52 mm | ZOI Average ([24]; average): 47 mm | ZOI 1 ([24]; replicate 1): 47 mm | ZOI 2 ([24]; replicate 2): 47 mm | ZOI Average ([25]; average): 48 mm | ZOI 1 ([25]; replicate 1): 47 mm | ZOI 2 ([25]; replicate 2): 49 mm | ZOI Average ([26]; average): 51 mm | ZOI 1 ([26]; replicate 1): 50 mm | ZOI 2 ([26]; replicate 2): 52 mm | concentration able to inhibit all strains of staphylococci [27]: 2 µg/mL | ZOI Average ([28]; average): 45.5 mm | ZOI 1 ([28]; replicate 1): 46 mm | ZOI 2 ([28]; replicate 2): 45 mm | ZOI Average ([29]; average): 52 mm | ZOI 1 ([29]; replicate 1): 52 mm | ZOI 2 ([29]; replicate 2): 52 mm | ZOI Average ([30]; average): 44.5 mm | ZOI 1 ([30]; replicate 1): 45 mm | ZOI 2 ([30]; replicate 2): 44 mm
